Patent US20070093536A1, “Target protein of antidiabetic and novel antidiabetic insuful corresponding thereto” (priority 2003, published 2007)
Like-named read-outs stand apart in the source and are kept apart here.

Target: T1, FLJ14797-derived protein (γ-tubulin ring complex protein) (Homo sapiens, UniProt Q9UGJ1)
T1 construct: histidine tag (N); FLAG tag (N); made in house; host or cells: cell-free protein synthesis system (PROTEIOS; TOYOBO) using wheat germ extracts
Test: Biacore S51 surface plasmon resonance analysis of interaction between compound and immobilized FLJ14797-derived protein
Type: binding
Experimental: Genes of interest in human full-length cDNA clones were subjected to BP reaction with a PCR cloning vector Gateway pDONR201 using Gateway system available from Invitrogen according to the kit's protocol to give an entry vector. pEU3-NII (TOYOBO) compatible with a cell-free protein synthesis system (PROTEIOS; TOYOBO) using wheat germ extracts was used as a source vector, from which a double-tag destination vector used as the destination vector of the Gateway system was prepared by introducing Gateway cassette with Gateway recombinant sequence into the pEU3-NII vector so that the Gateway system could be utilized, and further modifying the resulting vector by PCR so that peptides having histidine and FLAG tag sequences would be expressed in the N-terminal region of an expressed protein.
The prepared double-tag destination vector and entry vector were used to conduct […] using the Gateway system (Invitrogen) according to the protocol. The resulting product was transformed into Escherichia coli competent cells DH5α to select clones where the expression vector was introduced. Plasmids were prepared from the obtained clones using QIAfilter Midi kit (QIAGEN) according to the kit's protocol. The obtained plasmids were treated with phenol and chloroform according to the PROTEIOS (TOYOBO) protocol and subjected to the inactivation treatment of RNase to give purified expression plasmids.
Recombinant proteins were synthesized by the cell-free protein synthesis system (PROTEIOS; TOYOBO) using wheat germ extracts. mRNA was prepared according to the PROTEIOS protocol from the expression plasmids obtained by the method described in the paragraph 1. A 20-μg aliquot of the obtained mRNA was used to synthesize proteins in 2 wells of a 96-well micro titer plate according to the PROTEIOS protocol. The synthesized proteins were subjected to high-speed centrifugation treatment to remove precipitations. The obtained soluble fractions were purified using ANTI-FLAG M2 Affinity Gel (SIGMA) immobilizing thereon an anti-FLAG tag antibody according to the protocol to give purified proteins.
The surface of a CM5 sensor chip for S51 commercially available from Biacore was converted to NTA using IM EDC, 1.33 M NHS, and 16 mg/ml AB-NTA (pH 9.2) to make an NTA sensor chip for S51. The proteins expressed in the wheat germ system and purified with a FLAG tag were immobilized on this chip. The immobilization was performed by sequentially injecting 0.5 M NiCl2, 0.4 M EDC, […], a ligand (protein) solution, and 1 M ethanolamine (pH 8.5) into the passage system of Biacore S51. A running buffer used for the immobilization was PBS (pH 7.4). The ligand-immobilized sensor chip was used to conduct assay described below. A running buffer used was prepared by adding DMSO at the final concentration of 5% to HBS (10 mM HEPES and 150 mM NaCl, (pH 7.6)), 0.005% P20, and 100 uM mineral ion cocktail (Ca(OAc)2, Zn(OAc)2.2H2O, Cu(OAc)2.H2O, Co(OAc)2.4H2O, Mn(OAc)2.4H2O, Mg(OAc)2.4H2O, and FeCl3.6H2O). Compounds to be measured were prepared by making ½ serial dilutions (9 points) from 62.5 uM to 0.244 uM solutions. Solvents used for the compound solutions were prepared in the same composition as that of the running buffer. A solution containing only the solvents without the compound was prepared for zero-concentration measurement. […]

[1] = Biacore S51, FLJ14797-derived protein, same way as Example 1, Table 1, read-out: KD

T1 sequence (Q9UGJ1 whole entry, one chain of several): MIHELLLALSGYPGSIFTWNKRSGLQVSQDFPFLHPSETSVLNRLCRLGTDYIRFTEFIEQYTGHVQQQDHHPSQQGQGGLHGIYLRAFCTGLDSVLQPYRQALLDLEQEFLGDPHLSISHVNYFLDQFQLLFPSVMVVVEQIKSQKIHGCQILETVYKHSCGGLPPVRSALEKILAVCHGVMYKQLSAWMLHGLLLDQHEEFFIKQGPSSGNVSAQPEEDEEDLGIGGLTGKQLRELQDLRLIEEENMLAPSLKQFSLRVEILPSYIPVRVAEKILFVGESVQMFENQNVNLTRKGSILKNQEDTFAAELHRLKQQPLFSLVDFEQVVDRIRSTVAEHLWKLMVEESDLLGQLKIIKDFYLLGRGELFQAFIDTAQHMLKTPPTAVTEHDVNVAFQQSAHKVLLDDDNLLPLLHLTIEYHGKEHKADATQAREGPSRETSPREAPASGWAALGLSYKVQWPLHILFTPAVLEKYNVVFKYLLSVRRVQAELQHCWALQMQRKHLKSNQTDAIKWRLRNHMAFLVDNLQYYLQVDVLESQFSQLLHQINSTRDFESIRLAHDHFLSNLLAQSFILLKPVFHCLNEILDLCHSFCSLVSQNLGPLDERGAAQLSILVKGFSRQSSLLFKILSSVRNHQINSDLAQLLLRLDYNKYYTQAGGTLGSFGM

In the case of `O=C1NC(=O)C(Cc2ccc(OCCOC3CCCC3)cc2)S1` (centres unmarked) [Compound A-3], the Kd [1] is reported as 21.6 µM.
In the case of `O=C1NC(=O)C(Cc2ccc(OCCOC3CCCCC3)cc2)S1` (centres unmarked) [Compound A-2], the Kd [1] is reported as 13.8 µM.
In the case of `CCc1ccc(CCOc2ccc(CC3SC(=O)NC3=O)cc2)nc1` (centres unmarked) [pioglitazone, reference compound], the Kd (Biacore S51, FLJ14797-derived protein immobilized on NTA chip, compound 62.5 uM to 0.244 uM, Example 1, read-out: binding dissociation constant KD) is reported as 9.04 µM and the “interaction with FLJ14797-derived protein (specificity of binding)” value (Biacore S51, binding dose-dependent and saturated at high doses) is reported as “specific”.
In the case of `CC1(OCCOc2ccc(CC3SC(=O)NC3=O)cc2)CCCCC1` (centres unmarked) [Compound A-1, 5-{4-[2-(1-methyl-cyclohexyloxy)-ethoxy]-benzyl}-thiazolidine-2,4-dione], the Kd [1] is reported as 8.43 µM.
